The record followed here is patent publication US10004786B2 (Zealand Pharma A/S, priority 2009, dated 2018).

Structures are written as SMILES. Numbered stars: 1 amine (or outer) side, 2 acyl side, 3 side chain; on linkers, the order of the positions; unused ones are H or OH. Square brackets hold non-standard residues; d marks the D form. Side chains are listed from the residue outwards. Peptide text beside a SMILES is read from it. * marks the point of attachment. γGlu = O=C(O)[C@H](CCC(=O)[*:2])N[*:1]; Palmitoyl = CCCCCCCCCCCCCCCC(=O)*; Aib = CC(C)(N)C(=O)O

Common to all, as to type: cell-based
For one assay, the target named is T1, GluR (Homo sapiens, UniProt P47871).
T1 construct: Primary human hepatocyts provided by Lonza Walkersvill, Inc; host or cells: primary human hepatocytes
Nature of the assay: Hepatocyt cAMP formation (primary human hepatocyts). On the procedure: Primary human hepatocyts provided by Lonza Walkersvill, Inc. were carefully washed in TB buffer and incubated at 37° C. with peptides dissolved in TB buffer supplemented with 100 μM IBMX and 0.1% casein for 15 minutes. Prior to addition to the cells, the peptide dilutions were pre-warmed to 37° C. The reaction was stopped by addition of 25 μl of ice cold 0.5 M HCl, and the cells were incubated on ice for 60 min. The cAMP content in the wells was determined by adding 25 μl of the acid extracts from the wells to 75 μl sodium acetate buffer, pH 6.2, in 96-well microtiter “FlashPlates” coated with scintillant and anti-cAMP antibodies.
The amount of cAMP produced by the cells was calculated by extrapolation to a cAMP standard curve.
EC50 values were estimated by fitting the cAMP data to the below formula using Sigma Plot: […]
(In general: Cyclic AMP is a second messenger, typically raised through Gs and lowered through Gi signalling.)

A further assay addresses T2, human Glucagon-R (Homo sapiens, UniProt P47871).
T2 construct: expressed in transfected cells
Briefly: Glucagon receptor efficacy assay (cAMP formation in HEK293 cells expressing human Glucagon-R). The following applies: Table 1a, HEK293 cells expressing hGlucagonR, read-out: EC50 (nM) GluR. How it is done: (§1) The 5′-end primers additionally encoded a near Kozak consensus sequence to ensure efficient translation.
(§2) 48 hr after transfection cells were seeded for limited dilution cloning and selected with 1 mg/ml G418 in the culture medium.
(§3) On the day of analysis, growth medium was removed and the cells washed once with 200 μl Tyrode buffer. […] The reaction was stopped by addition of 25 μl 0.5 M HCl and incubated on ice for 60 min. The cAMP content was estimated using the FlashPlate® cAMP kit from Perkin-Elmer.
(§4) Efficacy of the GluGLP-1 agonists were estimated by exposing cells expressing hGlucagonR and hGLP-1R to the listed acylated compounds at increasing concentrations and measuring the formed cAMP as described in Methods.

Another assay addresses T3, human GLP-1R (Homo sapiens, UniProt P43220).
T3 construct: expressed in transfected cells
Nature of the assay: GLP-1 receptor efficacy assay (cAMP formation in HEK293 cells expressing human GLP-1R). The following applies: Table 1a, HEK293 cells expressing hGLP-1R. On the procedure: as §1, §2, §3, §4

T1 sequence (P47871 26-477): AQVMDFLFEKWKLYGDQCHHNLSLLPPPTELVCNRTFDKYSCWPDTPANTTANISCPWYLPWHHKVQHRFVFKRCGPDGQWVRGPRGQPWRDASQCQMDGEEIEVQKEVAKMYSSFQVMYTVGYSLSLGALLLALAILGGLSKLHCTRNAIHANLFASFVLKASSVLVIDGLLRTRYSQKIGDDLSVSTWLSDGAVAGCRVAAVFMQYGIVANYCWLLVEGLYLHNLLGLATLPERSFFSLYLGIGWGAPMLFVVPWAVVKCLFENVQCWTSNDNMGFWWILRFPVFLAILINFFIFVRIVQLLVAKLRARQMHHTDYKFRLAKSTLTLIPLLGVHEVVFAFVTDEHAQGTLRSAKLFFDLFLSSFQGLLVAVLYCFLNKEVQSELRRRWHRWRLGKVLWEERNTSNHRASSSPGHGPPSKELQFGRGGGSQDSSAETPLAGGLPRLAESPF
T3 sequence (P43220 24-463): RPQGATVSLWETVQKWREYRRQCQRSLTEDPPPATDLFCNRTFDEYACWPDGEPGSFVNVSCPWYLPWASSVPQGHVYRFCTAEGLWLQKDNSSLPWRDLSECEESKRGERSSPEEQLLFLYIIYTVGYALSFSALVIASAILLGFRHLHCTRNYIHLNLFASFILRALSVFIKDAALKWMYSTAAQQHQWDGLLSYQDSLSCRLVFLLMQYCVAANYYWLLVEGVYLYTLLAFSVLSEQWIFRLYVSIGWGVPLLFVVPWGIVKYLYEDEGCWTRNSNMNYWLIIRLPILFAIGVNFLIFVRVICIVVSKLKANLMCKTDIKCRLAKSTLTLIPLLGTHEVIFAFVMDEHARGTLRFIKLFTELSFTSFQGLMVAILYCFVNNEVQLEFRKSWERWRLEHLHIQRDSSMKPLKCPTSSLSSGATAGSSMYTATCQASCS
T2 sequence (P47871 26-477): as the sequence (P47871 26-477) above

As for `CCCCCCCCCCCCCCCC(=O)N[C@@H](CCC(=O)NCCCC[C@H](NC(=O)[C@H](C)NC(=O)[C@H](C)NC(=O)[C@H](CCC(N)=O)NC(=O)CNC(=O)[C@H](CCC(=O)O)NC(=O)[C@H](CC(C)C)NC(=O)[C@H](Cc1ccc(O)cc1)NC(=O)[C@H](CO)NC(=O)[C@H](CO)NC(=O)[C@@H](NC(=O)[C@H](CC(=O)O)NC(=O)[C@H](CO)NC(=O)[C@@H](NC(=O)[C@H](Cc1ccccc1)NC(=O)[C@@H](NC(=O)CNC(=O)[C@H](CCC(=O)O)NC(=O)[C@H](C)NC(=O)[C@@H](N)Cc1cnc[nH]1)[C@@H](C)O)[C@@H](C)O)C(C)C)C(=O)N[C@@H](CCC(=O)O)C(=O)N[C@@H](Cc1ccccc1)C(=O)N[C@H](C(=O)N[C@@H](C)C(=O)N[C@@H](Cc1c[nH]c2ccccc12)C(=O)N[C@@H](CC(C)C)C(=O)N[C@H](C(=O)N[C@@H](CCCNC(=N)N)C(=O)NCC(=O)N[C@@H](CCCNC(=N)N)C(=O)NCC(=O)O)C(C)C)[C@@H](C)CC)C(=O)O` [Liraglutide], the “GluR EC50 (nM) (1)” value at GluR (experiment (1)) is “∞”. For the same compound, the “GluR EC50 (nM) (2)” value on GluR (experiment (2)) is given as “∞”. In addition, the “GluR EC50 (nM) (log avg)” value on GluR (log average of (1) and (2)) is “∞”.
With `CCCCCCCCCCCCCCCC(=O)N[C@@H](CCC(=O)NCCCC[C@H](NC(=O)[C@H](CCC(=O)O)NC(=O)[C@H](CC(=O)O)NC(=O)[C@H](CC(C)C)NC(=O)[C@H](Cc1ccc(O)cc1)NC(=O)[C@H](CCCCN)NC(=O)[C@H](CO)NC(=O)[C@H](Cc1ccc(O)cc1)NC(=O)[C@H](CC(=O)O)NC(=O)[C@H](CO)NC(=O)[C@@H](NC(=O)[C@H](Cc1ccccc1)NC(=O)[C@@H](NC(=O)CNC(=O)[C@H](CCC(N)=O)NC(=O)C(C)(C)NC(=O)[C@@H](N)Cc1c[nH]cn1)[C@@H](C)O)[C@@H](C)O)C(=O)N[C@@H](C)C(=O)N[C@@H](C)C(=O)N[C@@H](Cc1c[nH]cn1)C(=O)N[C@@H](CC(=O)O)C(=O)N[C@@H](Cc1ccccc1)C(=O)N[C@H](C(=O)N[C@@H](CCC(=O)O)C(=O)N[C@@H](Cc1c[nH]c2ccccc12)C(=O)N[C@@H](CC(C)C)C(=O)N[C@@H](CC(C)C)C(=O)N[C@@H](CO)C(=O)N[C@@H](C)C(N)=O)C(C)C)C(=O)O` [Compound 40] (H-H[Aib]QGTFTSDYSKYLDEK([γGlu-Palmitoyl])AAHDFVEWLLSA-NH2), the half-maximal effective concentration (EC50) at human Glucagon-R was found to be 0.18 nM; at human GLP-1R it was 0.2 nM.
With `CCCCCCCCCCCCCCCC(=O)NCCCC[C@H](NC(=O)[C@H](CO)NC(=O)[C@H](CC(=O)O)NC(=O)[C@H](CC(C)C)NC(=O)[C@H](Cc1ccc(O)cc1)NC(=O)[C@H](CCCCN)NC(=O)[C@H](CO)NC(=O)[C@H](Cc1ccc(O)cc1)NC(=O)[C@H](CC(=O)O)NC(=O)[C@H](CO)NC(=O)[C@@H](NC(=O)[C@H](Cc1ccccc1)NC(=O)[C@@H](NC(=O)CNC(=O)[C@H](CCC(N)=O)NC(=O)C(C)(C)NC(=O)[C@@H](N)Cc1c[nH]cn1)[C@@H](C)O)[C@@H](C)O)C(=O)N[C@@H](C)C(=O)N[C@@H](C)C(=O)N[C@@H](Cc1c[nH]cn1)C(=O)N[C@@H](CC(=O)O)C(=O)N[C@@H](Cc1ccccc1)C(=O)N[C@H](C(=O)N[C@@H](CCC(=O)O)C(=O)N[C@@H](Cc1c[nH]c2ccccc12)C(=O)N[C@@H](CC(C)C)C(=O)N[C@@H](CC(C)C)C(=O)N[C@@H](CO)C(=O)N[C@@H](C)C(N)=O)C(C)C` [Compound 23], the EC50 at human GLP-1R came to 0.14 nM.

As usually defined, the EC50 is the midpoint of the concentration-response curve.
